Among the test systems are BT-549 breast; SK-MEL-2 melanoma; SF-268 CNS; OVCAR-3 ovarian; 786-0 renal; SW-620 colon; OVCAR-5 ovarian; T-47D breast; OVCAR-4 ovarian; UACC-62 melanoma.
Assay in all cases: NCI anticancer screen, dose series, 48 h

This is an account of results in PubChem BioAssay (NCI).

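All cell lines were grown in 96-well plates and treated with compound for 48 hours. The concentration for 50% growth inhibition is given as GI50. TGI: concentration producing complete growth inhibition.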 Some results are limits rather than exact numbers.

For `CCCCOC(C)(C)/C=C/C(O)[C@](C)(O)[C@H]1[C@H](O)C[C@@]2(C)[C@@H]3CCc4c(cc(OC5OC(CO)C(O)C(O)C5O)c(O)c4C)C3(C)C(=O)C[C@]12C` (some centres not stated), the TGI in the experiment with BT-549 breast, in the experiment on SK-MEL-2 melanoma, in the experiment with SF-268 CNS, in the experiment on OVCAR-3 ovarian, in the experiment with 786-0 renal and in the experiment on SW-620 colon was above 100 µM each time. Also, the TGI in the experiment on OVCAR-5 ovarian, in the experiment with T-47D breast, in the experiment with OVCAR-4 ovarian and in the experiment on UACC-62 melanoma was above 100 µM each time.
As for `O=C(O)[C@@H]1C[C@@H](O)CN1C(=O)OCc1ccccc1`, the TGI in the experiment with BT-549 breast, in the experiment on SK-MEL-2 melanoma, in the experiment on SF-268 CNS, in the experiment with OVCAR-3 ovarian, in the experiment on 786-0 renal and with SW-620 colon was above 100 µM in each case. Moreover, the TGI in the experiment on OVCAR-5 ovarian, in the experiment on T-47D breast, in the experiment on OVCAR-4 ovarian and in the experiment with UACC-62 melanoma was above 100 µM in each case.
Consider `CCOC(=O)c1[nH]cc(C)c1-c1ccn(-c2ccccc2)c1`, for which the TGI in the experiment with BT-549 breast, in the experiment with SK-MEL-2 melanoma, in the experiment on SF-268 CNS, in the experiment with OVCAR-3 ovarian, in the experiment on 786-0 renal and with SW-620 colon was above 100 µM throughout. The TGI in the experiment on OVCAR-5 ovarian, in the experiment with T-47D breast, with OVCAR-4 ovarian and with UACC-62 melanoma was above 100 µM each time.
Take `COc1ccc2c(c1)O/C(=C\c1cccc(OCC(=O)Nc3nc4c(s3)CCCC4)c1)C2=O`: the GI50 in the experiment on BT-549 breast was above 51.1 µM; with SK-MEL-2 melanoma, 12.5 µM; in the experiment on SF-268 CNS it was 5.33 µM; with OVCAR-3 ovarian it was 2980 nM; in the experiment on SW-620 colon, above 100 µM; in the experiment on OVCAR-5 ovarian it was above 40.6 µM. Further, the GI50 in the experiment with T-47D breast is 6.39 µM; in the experiment with OVCAR-4 ovarian, above 100 µM; in the experiment with UACC-62 melanoma it was above 46.2 µM. The TGI was above 100 µM in the experiment with BT-549 breast; above 30.6 µM in the experiment with SK-MEL-2 melanoma; 12.3 µM with SF-268 CNS; 7.63 µM with OVCAR-3 ovarian; above 19.9 µM in the experiment with 786-0 renal; above 100 µM with SW-620 colon. Further, the TGI in the experiment on OVCAR-5 ovarian is above 78.8 µM; in the experiment with T-47D breast, above 100 µM; with OVCAR-4 ovarian, above 100 µM; in the experiment on UACC-62 melanoma it was above 100 µM.
With `CCOC1CC(=O)c2c(Br)sc(Br)c21` (configuration not stated), the TGI was determined as 66.1 µM with BT-549 breast; 37.2 µM in the experiment on SK-MEL-2 melanoma; 80.8 µM with SF-268 CNS; 28.5 µM in the experiment on OVCAR-3 ovarian; 94.7 µM with 786-0 renal; 47.1 µM in the experiment with SW-620 colon. Further, the TGI with OVCAR-5 ovarian amounted to 45.3 µM; in the experiment with T-47D breast it was 44.1 µM; with UACC-62 melanoma it was 35.1 µM.
With `O=C(CN1CCCCC1)CC(O)(C(F)(F)F)C(F)(F)F`, the TGI in the experiment with BT-549 breast, in the experiment on SK-MEL-2 melanoma, in the experiment with OVCAR-3 ovarian, in the experiment with 786-0 renal, in the experiment with SW-620 colon and in the experiment on OVCAR-5 ovarian was above 100 µM each time. In addition, the TGI with T-47D breast, in the experiment with OVCAR-4 ovarian and in the experiment on UACC-62 melanoma was above 100 µM throughout.
Turning to `O=c1cc(/C=C/c2ccc(O)c(O)c2)oc(/C=C/c2ccc(O)c(O)c2)c1`, the TGI in the experiment with BT-549 breast is 15.2 µM; with SK-MEL-2 melanoma, 9.97 µM; in the experiment on SF-268 CNS it was 13.2 µM; with OVCAR-3 ovarian it was 10.8 µM; in the experiment with 786-0 renal, 17.7 µM; with SW-620 colon, above 26.8 µM. Further, the TGI in the experiment on OVCAR-5 ovarian is 44.8 µM; in the experiment with T-47D breast, 9.5 µM; with OVCAR-4 ovarian it was 11.7 µM; in the experiment with UACC-62 melanoma it was 6.43 µM.
Consider `O=C1c2ccccc2CN1c1ccc(O)cc1`, for which the TGI with BT-549 breast, with SK-MEL-2 melanoma, in the experiment on SF-268 CNS, in the experiment with OVCAR-3 ovarian, in the experiment on 786-0 renal and with SW-620 colon was above 100 µM in each case. Also, the TGI in the experiment with OVCAR-5 ovarian, in the experiment with T-47D breast, with OVCAR-4 ovarian and in the experiment on UACC-62 melanoma was above 100 µM each time.
Turning to `O=[N+]([O-])C(=C(N1CCCCC1)N1CCCCC1)/C(Cl)=C(\Cl)Br`, the TGI in the experiment with BT-549 breast is above 100 µM; in the experiment with SF-268 CNS, 87.9 µM; in the experiment on OVCAR-3 ovarian, 81.4 µM; in the experiment with 786-0 renal, 67.8 µM; with SW-620 colon, 38.5 µM; with T-47D breast, 65.1 µM. For the same compound, the TGI in the experiment with OVCAR-4 ovarian stood at 66.5 µM; in the experiment with UACC-62 melanoma it was 28.1 µM.
With `O=C1CCSSCCC(=O)NCCN1`, the TGI in the experiment with BT-549 breast, with SK-MEL-2 melanoma, in the experiment with SF-268 CNS, in the experiment on OVCAR-3 ovarian, in the experiment on 786-0 renal and in the experiment with SW-620 colon was above 100 µM each time. Besides, the TGI with OVCAR-5 ovarian, in the experiment with T-47D breast, with OVCAR-4 ovarian and in the experiment with UACC-62 melanoma was above 100 µM throughout.
`C/C(N=Nc1nc2ccccc2s1)=C1/C=CC=CN1O`: the TGI was above 100 µM in the experiment on BT-549 breast; above 100 µM with SK-MEL-2 melanoma; above 100 µM in the experiment on SF-268 CNS; 71.2 µM in the experiment with OVCAR-3 ovarian; above 100 µM with 786-0 renal; above 100 µM in the experiment on SW-620 colon. Besides, the TGI was 5.95 µM in the experiment with OVCAR-5 ovarian, above 100 µM in the experiment on T-47D breast, above 100 µM in the experiment on OVCAR-4 ovarian and above 100 µM in the experiment on UACC-62 melanoma.
Regarding `N#Cc1c(-c2ccccc2)/c(=C\Nc2ccc(Cl)cc2)c(=O)n2c1nc1ccccc12`, the TGI in the experiment on BT-549 breast, in the experiment on SK-MEL-2 melanoma, in the experiment with SF-268 CNS, in the experiment with OVCAR-3 ovarian, in the experiment on 786-0 renal and in the experiment with SW-620 colon was above 100 µM throughout. The TGI with OVCAR-5 ovarian, in the experiment with T-47D breast and in the experiment with OVCAR-4 ovarian was above 100 µM throughout.
On to `CCCCCCCCCC[C@H](O)[C@H]1CC[C@H]([C@H]2CC[C@H]([C@H](O)CC[C@H](O)CCCCCCC[C@@H](O)CC3=C[C@H](C)OC3=O)O2)O1`, for which the TGI in the experiment on BT-549 breast, in the experiment with SK-MEL-2 melanoma, in the experiment with SF-268 CNS, in the experiment with OVCAR-3 ovarian, in the experiment on 786-0 renal and with SW-620 colon was above 100 µM each time. Also, the TGI with OVCAR-5 ovarian, in the experiment with T-47D breast and in the experiment with OVCAR-4 ovarian was above 100 µM each time. Also, the GI50 was above 100 µM in the experiment on SF-268 CNS, above 100 µM in the experiment with SW-620 colon, above 100 µM with OVCAR-5 ovarian and 2.17 µM in the experiment with T-47D breast.
